The record followed here is PMC2654404 (Journal of molecular biology, 2008).

Experiment [1] has as its target T1, B. anthracis NMAT (Bacillus anthracis, UniProt C3L5T6). Format: biochemical.
Experiment [2] has as its target T1, B. anthracis NMAT. It is filed as biochemical. The source holds these as a separate data set.
The test system of experiment [3] is native B. anthracis NMAT. Format: biochemical. The conditions noted are these: pH 7.5.
Experiment [4] concerns (His)6-tag B. anthracis NMAT. It is filed as biochemical, Bacillus anthracis.
Experiment [5] has as its system native B. anthracis NMAT. Format: biochemical, Bacillus anthracis. The settings on record: pH 7.5.
Experiment [6] addresses T1, B. anthracis NMAT. Nature of the experiment: biochemical. Format: binding.
Experiment [7] relates to (His)6-tag B. anthracis NMAT. Format: biochemical, Bacillus anthracis. The source holds these as a separate data set.
Experiment [8] concerns the target T1, B. anthracis NMAT. Format: biochemical. This is another data set of the same source.
In experiment [9] the target is (His)6-tagged NMAT (Bacillus anthracis, UniProt C3L5T6).
Setting [10] is: read-out: KD2 (dissociation constant, second site), pH 7.5.

Values joined by “and” are separate entries in the source; they are usually repeats but may differ in a detail not shown here. Identical values can stand only once. Like-named read-outs stand apart in the source and are kept apart here. Marks after values point to notes of the source that are not given here.

T1 sequence (C3L5T6 whole entry, looked up): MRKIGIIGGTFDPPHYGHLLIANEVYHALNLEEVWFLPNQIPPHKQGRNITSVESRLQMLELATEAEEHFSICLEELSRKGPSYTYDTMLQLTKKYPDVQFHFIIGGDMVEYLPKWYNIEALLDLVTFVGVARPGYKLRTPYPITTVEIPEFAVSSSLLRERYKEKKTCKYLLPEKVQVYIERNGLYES
(His)6-tagged NMAT, sequence (C3L5T6 whole entry, looked up): as above

For `Nc1ncnc2c1ncn2[C@@H]1O[C@H](COP(=O)(O)OP(=O)(O)O)[C@@H](O)[C@H]1O` [ADP], the “ability to activate or inhibit the NMAT reaction” value in experiment [1] was “None of these compounds were observed to have an effect”. In addition, the “ability to serve as substrate for NMAT in place of ATP” value (shortened to “ability to serve as substrate”) in experiment [2] is “Only CTP and dATP were able to serve as substrates”.
For the compound `Nc1ccn([C@@H]2O[C@H](COP(=O)(O)OP(=O)(O)OP(=O)(O)O)[C@@H](O)[C@H]2O)c(=O)n1` [CTP, cytidine triphosphate], in experiment [2], the “ability to serve as substrate” value is on record as “able to serve as substrates”.
For the compound `O=C(O)c1ccc[n+]([C@@H]2O[C@H](COP(=O)(O)O)[C@@H](O)[C@H]2O)c1` [NaMN, nicotinate mononucleotide], in experiment [3], the K0.5 was 16 ± 1 ^c μM and 15 ± 1 ^d μM; the kcat was 815 ± 12 ^c min^−1 and 782 ± 7 ^d min^−1; the “nH (Hill coefficient)” value is 0.806 ± 0.004 ^c. The “difference in K0.5 between the continuous and discontinuous assays” value in experiment [4] is reported as approximately 4 fold. Also, in experiment [5], the K0.5 was 110 ± 18 ^c μM and 65 ± 5 ^d μM; the kcat was 1059 ± 49 ^c min^−1 and 890 ± 16 ^d min^−1; the “nH (Hill coefficient)” value is recorded as 0.708 ± 0.004 ^c. Besides, in experiment [6] (pH 7.5), the ΔH1 result is “ΔH1= −5385 ± 47 cal/mol”, the ΔH2 entry is recorded as “ΔH2= −3954 ± 183 cal/mol”, the ΔS1 entry is given as “ΔS1= −2.4 cal/mol*K” and the ΔS2 entry was “ΔS2= −3.9 cal/mol*K”. For the same compound, the Kd in experiment [6] (read-out: KD1 (dissociation constant, first site), pH 7.5) was found to be 382 µM. Further, the Kd in experiment [6] (setting [10]) worked out at 9210 µM.
On to `Nc1ncnc2c1ncn2[C@@H]1O[C@H](COP(=O)(O)OP(=O)(O)OP(=O)(O)O)[C@@H](O)[C@H]1O` [ATP, adenosine triphosphate], for which, in [3], the kcat is 973 ± 120 ^c min^−1 and 702 ± 20 ^d min^−1; the “nH (Hill coefficient)” value is recorded as 0.621 ± 0.007 ^c. For the same compound, the K0.5 in experiment [7] (pH 7.5) was 142 ± 28 μM and 142 ± 28 ^c μM and 79 ± 6 ^d μM. Besides, the “difference in K0.5 between the continuous and discontinuous assays” value in [4] is approximately 4 fold. Besides, in [5], the kcat is 1240 ± 111 ^c min^−1 and 864 ± 19 ^d min^−1; the “nH (Hill coefficient)” value was 0.661 ± 0.004 ^c. For the same compound, the Kd in experiment [6] came out at 215 µM. Besides, in experiment [6] (pH 7.5), the ΔH1 entry is on record as “ΔH1= −5348 ± 216 cal/mol”, the ΔH2 entry is listed as “ΔH2= −1.4E4 ± 350 cal/mol”, the ΔS1 entry is “ΔS1= −1.2 cal/mol*K” and the ΔS2 entry is on record as “ΔS2= −36 cal/mol*K”. For the same compound, in [6] (setting [10]), the Kd is 3720 µM.
Turning to `Nc1ccn([C@@H]2O[C@H](COP(=O)(O)OP(=O)(O)O)[C@@H](O)[C@H]2O)c(=O)n1` [CDP, cytidine diphosphate], in [2], the “ability to serve as substrate” value is “Only CTP and dATP were able to serve as substrates”.
As for `O=c1[nH]cnc2c1ncn2[C@@H]1O[C@H](COP(=O)(O)OP(=O)(O)O)[C@@H](O)[C@H]1O` [IDP, inosine diphosphate], in experiment [2], the “ability to serve as substrate” value is “Only CTP and dATP were able to serve as substrates”.
For the compound `O=P(O)(O)OC[C@H]1O[C@H](OP(=O)(O)OP(=O)(O)O)[C@H](O)[C@@H]1O` [PRPP, 5-phospho-ribose-1-pyrophosphate], the “ability to activate or inhibit the NMAT reaction” value in experiment [1] is given as “None of these compounds were observed to have an effect”.
Consider `Nc1ncnc2c1ncn2[C@@H]1O[C@H](COP(=O)(O)O)[C@@H](O)[C@H]1O` [AMP], for which the “ability to activate or inhibit the NMAT reaction” value in experiment [1] is listed as “None of these compounds were observed to have an effect”. For the same compound, the “ability to serve as substrate” value in [2] was “Only CTP and dATP were able to serve as substrates”.
As for `O=c1ccn([C@@H]2O[C@H](CO[P@@](=O)(O)O[P@@](=O)(O)OP(=O)(O)O)[C@@H](O)[C@H]2O)c(=O)[nH]1` (stereo in doubt) [UTP, uridine triphosphate], the “ability to serve as substrate” value in [2] is “Only CTP and dATP were able to serve as substrates”.
`NC(=O)c1ccc[n+]([C@@H]2O[C@H](COP(=O)([O-])OP(=O)(O)OC[C@H]3O[C@@H](n4cnc5c(N)ncnc54)[C@H](O)[C@@H]3O)[C@@H](O)[C@H]2O)c1` [NAD, nicotinamide adenine dinucleotide]: the “ability to activate or inhibit the NMAT reaction” value in experiment [1] is “None of these compounds were observed to have an effect”.
Take `O=C(O)c1cccnc1C(=O)O` [quinolic acid]: the “ability to activate or inhibit the NMAT reaction” value in [1] is on record as “None of these compounds were observed to have an effect”.
Regarding `Nc1ncnc2c1ncn2[C@H]1C[C@H](O)[C@@H](COP(=O)(O)OP(=O)(O)OP(=O)(O)O)O1` [dATP, Deoxyadenosine triphosphate], the “ability to serve as substrate” value in experiment [2] was “able to serve as substrates”.
As for `OCC(O)CO` [glycerol], the “effect of 10% glycerol on the steady-state kinetic parameters of ATP and NaMN” value in experiment [7] was “no significant change in the kinetic parameters”.
`O=C(CO)COP(=O)(O)O` [DHAP, dihydroxyacetone phosphate]: the “ability to activate or inhibit the NMAT reaction” value in experiment [1] was “None of these compounds were observed to have an effect”.
Turning to “nicotinamide adenine dinucleotide phosphate [NADP]”, in [1], the “ability to activate or inhibit the NMAT reaction” value is listed as “None of these compounds were observed to have an effect”.
For `Nc1nc2c(ncn2[C@@H]2O[C@H](COP(=O)(O)OP(=O)(O)OP(=O)(O)O)[C@@H](O)[C@H]2O)c(=O)[nH]1` [GTP, guanosine triphosphate], in experiment [2], the “ability to serve as substrate” value is “Only CTP and dATP were able to serve as substrates”.
Consider `NC(=O)c1ccc[n+]([C@@H]2O[C@H](COP(=O)([O-])O)[C@@H](O)[C@H]2O)c1` [NMN, nicotinamide mononucleotide], for which, in [1], the “ability to activate or inhibit the NMAT reaction” value is on record as “None of these compounds were observed to have an effect”. The “activity of NMAT with the mononucleotide as substrate” value in experiment [8] is on record as “little to no activity”.
As to `Nc1ncnc2c1ncn2[C@@H]1O[C@H](COP(=O)(O)OP(=O)(O)OC[C@H]2O[C@@H]([n+]3cccc(C(=O)O)c3)[C@H](O)[C@@H]2O)[C@@H](O)[C@H]1O` [NaAD, nicotinate adenine dinucleotide], in [9], the “pattern of inhibition by the reaction product, ATP as variable substrate” value is reported as “competitive inhibition” and the “pattern of inhibition by the reaction product, NaMN as variable substrate” value was “competitive inhibition”. Besides, in [6] (pH 7.5), the Stoichiometry to monomer was found to be 0.924 ± 0.003, the ΔH was -6.446 ± 0.03 kcal/mol and the ΔS entry is reported as “ΔS=3.5 cal/mol*K”. Besides, in experiment [6] (read-out: KD (dissociation constant), pH 7.5), the Kd worked out at 3.2 ± 0.8 µM.
For the compound `Nc1nc2c(ncn2[C@@H]2O[C@H](COP(=O)(O)OP(=O)(O)O)[C@@H](O)[C@H]2O)c(=O)[nH]1` [GDP, guanosine diphosphates], in experiment [2], the “ability to serve as substrate” value is “Only CTP and dATP were able to serve as substrates”.
In the case of `O=c1ccn([C@@H]2O[C@H](COP(=O)(O)OP(=O)(O)O)[C@@H](O)[C@H]2O)c(=O)[nH]1` [UDP, uridine diphosphate], the “ability to serve as substrate” value in experiment [2] is “Only CTP and dATP were able to serve as substrates”.
Same read-out and setting: next, `Cc1cn([C@H]2C[C@H](O)[C@@H](COP(=O)(O)OP(=O)(O)O)O2)c(=O)[nH]c1=O` [TDP, thymidine diphosphate]: “Only CTP and dATP were able to serve as substrates”.
For `N[C@@H](CC(=O)O)C(=O)O` [L-aspartic acid], the “ability to activate or inhibit the NMAT reaction” value in [1] is listed as “None of these compounds were observed to have an effect”.
